Legend:
human mGlu2 receptor = human mGlu2 receptor (Homo sapiens (Human), UniProt Q14416); assay: Assessment of mGlu2 receptor negative allosteric modulator activity in human mGlu2 receptor stable expressing cells (aequorin luminescence, EC80 glutamate); type: cell-based; settings: human mGlu2 receptor stable expressing HEK cells; compound added 120 seconds before EC80 glutamate; luminescence (RLU); read-out: mGluR2 NAM IC50 (nM) or inhibition rate (%)
Protocol: Test 1: Assessment with Human mGlu2 Receptor Stable Expressing Cells
(1) Human mGlu2 Receptor Stable Expressing Cells
Human mGlu2 receptor stable expressing cells were prepared, and used for incubation. Specifically, human mGlu2 receptor gene was inserted into pcDNA4/TO (K1020-01, Life technologies, Carlsbad, Calif., USA), and introduced into TR-expressed human kidney-derived HEK cells (cat #CCL-82.2, ATCC, USA), followed by screening with Geneticin (cat #10131-027, Life technologies, Carlsbad, Calif., USA), to obtain human mGlu2 receptor stable expressing cells.
High glucose-DMEM media (cat #11995-065, Life technologies, Carlsbad, Calif., USA) containing 10% Dialysed-FBS (cat #26400-044, Life technologies, Carlsbad, Calif., USA), 50 μg/mL Blasticidin S (cat #ANT-BL-1, Life technologies, Carlsbad, Calif., USA), and 2 mg/mL G418 (cat #16513-84, nacalai tesque, Kyoto, Japan) were used for incubation on flasks for cell culture (cat #3133-150, AGC Thechno Glass, Shizuoka, Japan). During the incubation, cells were recovered by the treatment with TrypLE Express (cat #12604-013, Life technologies, Carlsbad, Calif., USA), followed by subculture, every three to four days.
Cells were recovered by an about 80% confluency in the treatment with TrypLE Express three to four days after the subculture, transiently transfected with Ga16, apoaequorin, in media of Hanks (cat #14065-056, Life technologies, Carlsbad, Calif., USA)/20 mmol/L HEPES (cat #15630-080, Life technologies, Carlsbad, Calif., USA) Buffer (pH 7.4) containing 0.1% BSA (cat #12604-013, Life technologies, Carlsbad, Calif., USA) and 0.1 μg/mL Tetracycline (cat #33031-64, nacalai tesque, Kyoto, Japan), and then seeded on a 384-well plate (cat #781090, Greiner bio-one, Frickenhausen, Germany) in 1,500 cells/30 μL/well.
Coelentetrazine h (cat #S2011, Promega, Madison, Wis., USA) was added to the plate (10 μl/well) so as to be a final concentration of 1 μmol/L on the day after the seeding, and let stand for 4 hours or more at room temperature after centrifugation.
(2) Preparation of Test Compounds
A test compound was dissolved in DMSO so as to be a concentration 1000 times higher than the assessment concentration. This DMSO solution was diluted with a medium (Hanks, 20 mmol/L HEPES, 0.1% BSA) to a concentration 6 times higher than the assessment concentration. Glutamate was diluted with Hanks/20 mmol/L HEPES/0.1% BSA medium to a concentration 6 times higher than EC80 concentration.
(3) Assessment of mGlu2 Receptor Negative Allosteric Modulator Activity
Human mGlu2 receptor stable expressing cells were prepared and incubated. Luminescence signals by mGlu2 receptor stimulation were detected with FDSS7000 (Hamamatsu Photonics). The compound solution prepared above was added to a plate where cells and luminescent substrates were added (10 μl/well). After 120 seconds of the addition, EC80 Glutamate-containing solution was added thereto (10 μl/well), and luminescence signals were measured for 300 seconds after the addition (center wavelength: 465 nm) for calculation of RLU (Integration). mGlu2 receptor negative allosteric modulator activity of a compound was calculated by (100-100×(RLU of each compound and concentration)/(RLU of DMSO group)).
The present compound was assessed with the above biological test, and the compounds with mGlu2 receptor negative allosteric modulator activity were found out. mGlu2 receptor negative allosteric modulator activity (IC50 value (nmol/L)) for each compound is shown in the following table.

CYP3A4 = CYP3A4 (Homo sapiens (Human), UniProt P08684); assay: Assessment of MBI and enzyme inactivation clearance against CYP3A4 (human liver microsomes, midazolam or testosterone as substrate); type: in vitro ADME; settings: for microsomal CLint: probe midazolam or testosterone, CYP3A4, human liver microsomes, CLint = kinact/KI x CYP contents; for CYP3A4 MBI: shift in IC50 values due to preincubation with NADPH, human liver microsomes, MBI potential when 2-fold or more, N.D. = Not Detected
Excerpt: Test 4: Assessment of MBT and Enzyme Inactivation Clearance Against CYP3A4
Cytochrome P450 (hereinafter called CYP) is the most important enzyme group associated with drug metabolism, and most of pharmacokinetic interactions are based on the inhibition of the CYP activities. CYP includes multiple molecular species. In particular, CYP3A4 is most involved in drug metabolism in oxidation reaction with CYP, and accounts for a major portion of CYPs existing in the liver.
CYP inhibition is generally divided into two types consisting of “reversible inhibition” and “irreversible inhibition (mechanism-based inhibition: MBI)”. In particular, CYP inhibition based on the MBI is known to have a possibility to cause severe side effects such as hepatotoxicity as well as drug-drug interactions (Curr Opin Drug Discov Devel. 2010 January, 13(1), 66-77, Therapeutics and Clinical Risk Management, 2005, 1(1), 3-13).
MBI and enzyme inactivation clearance against CYP3A4 were evaluated for example compounds.
Inhibition effects and inhibition types of test compounds to CYP3A4 were evaluated using human liver microsomes as an enzyme source and midazolam or testosterone as a substrate of CYP3A4. After metabolic reaction for 30 minutes at 37° C., metabolites of CYP3A4 substrate in the presence or absence of a test compound (at 4 concentrations) were measured by LC-MS/MS, and the inhibition rates were calculated from the ratios of peak area. IC50 values were calculated from plots of test compound concentrations. It was known that when a test compound has MBI potential, IC50 value is lowered by starting metabolic reactions after preincubation in the presence of NADPH (cofactor). Therefore, it was determined that there was MBI potential when the shift in IC50 values due to preincubation was 2-fold or more (Xenobiotica, 2009, 39(2), 99-112).
When MBI potential was determined, kinact (maximum inactivation rate constant) and KI (inactivator concentration yielding a measured inactivation rate at half of kinact) were calculated by the non-linear least-squares method. Enzyme inactivation clearance was calculated according to the method described in Drug Metabolism and Disposition, 2011, 39(7), 1247-1254 (CLint=kinact/KI([…])×CYP contents (pmol/mg protein)).

human mGlu2 receptor, sequence (Q14416 19-872): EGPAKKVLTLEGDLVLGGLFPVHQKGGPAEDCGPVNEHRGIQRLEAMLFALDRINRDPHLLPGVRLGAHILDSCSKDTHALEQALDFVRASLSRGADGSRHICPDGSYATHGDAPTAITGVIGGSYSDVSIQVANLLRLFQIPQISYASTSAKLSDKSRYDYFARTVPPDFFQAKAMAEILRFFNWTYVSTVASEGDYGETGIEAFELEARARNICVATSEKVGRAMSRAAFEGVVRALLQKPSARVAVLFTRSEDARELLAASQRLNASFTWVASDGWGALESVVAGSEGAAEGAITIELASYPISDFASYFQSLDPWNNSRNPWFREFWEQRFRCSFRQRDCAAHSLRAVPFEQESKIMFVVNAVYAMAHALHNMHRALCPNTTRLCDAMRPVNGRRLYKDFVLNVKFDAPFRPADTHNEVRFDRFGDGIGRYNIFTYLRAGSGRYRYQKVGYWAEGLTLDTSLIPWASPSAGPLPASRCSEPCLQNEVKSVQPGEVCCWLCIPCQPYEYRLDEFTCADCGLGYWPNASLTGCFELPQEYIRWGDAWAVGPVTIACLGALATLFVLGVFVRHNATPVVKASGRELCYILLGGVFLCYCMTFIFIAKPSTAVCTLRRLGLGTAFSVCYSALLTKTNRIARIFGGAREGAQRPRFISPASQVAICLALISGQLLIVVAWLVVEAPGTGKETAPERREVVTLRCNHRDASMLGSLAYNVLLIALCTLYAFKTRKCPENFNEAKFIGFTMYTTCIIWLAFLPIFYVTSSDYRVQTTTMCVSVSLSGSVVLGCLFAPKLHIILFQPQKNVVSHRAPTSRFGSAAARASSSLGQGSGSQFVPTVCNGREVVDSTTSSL
CYP3A4, sequence (P08684 whole entry): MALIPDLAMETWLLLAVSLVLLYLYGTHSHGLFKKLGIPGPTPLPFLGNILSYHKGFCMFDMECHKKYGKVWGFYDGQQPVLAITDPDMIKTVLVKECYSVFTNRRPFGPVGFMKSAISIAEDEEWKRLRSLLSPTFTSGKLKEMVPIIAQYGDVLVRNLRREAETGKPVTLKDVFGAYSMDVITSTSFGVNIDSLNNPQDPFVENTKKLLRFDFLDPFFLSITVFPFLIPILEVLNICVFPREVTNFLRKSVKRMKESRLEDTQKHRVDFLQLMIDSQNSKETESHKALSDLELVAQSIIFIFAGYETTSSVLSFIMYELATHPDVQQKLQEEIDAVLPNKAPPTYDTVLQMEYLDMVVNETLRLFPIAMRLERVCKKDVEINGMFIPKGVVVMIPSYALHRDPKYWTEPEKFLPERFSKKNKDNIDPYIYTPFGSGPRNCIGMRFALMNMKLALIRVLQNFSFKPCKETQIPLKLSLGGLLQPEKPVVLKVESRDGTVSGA

SMILES | IC50 (human mGlu2 receptor) [nM] | microsomal CLint (CYP3A4) [µL/min/mg] | CYP3A4 MBI (CYP3A4)
C[C@H]1CN(c2ccc(C(F)F)cc2)C(=O)c2c(-c3ccc4nccn4c3)cnn21 [Example 4, (7S)-5-[4-(difluoromethyl)phenyl]-3-(imidazo[1,2-a]pyridin-6-yl)-7-methyl-6,7-dihydropyrazolo[1,5-a]pyrazin-4(5H)-one] | 33 | – | –
C[C@H]1CN(c2ccc3c(c2)OC(F)(F)O3)C(=O)c2c(-c3ccc4nccn4c3)cnn21 [Example 8, (7S)-5-(2,2-difluoro-1,3-benzodioxol-5-yl)-3-(imidazo[1,2-a]pyridin-6-yl)-7-methyl-6,7-dihydropyrazolo[1,5-a]pyrazin-4(5H)-one] | – | 0.601 | 2.2
C[C@H]1CN(c2ccc(OC(F)F)cc2)C(=O)c2c(-c3ccc4nccn4c3)cnn21 [Example 9, (7S)-5-[4-(difluoromethoxy)phenyl]-3-(imidazo[1,2-a]pyridin-6-yl)-7-methyl-6,7-dihydropyrazolo[1,5-a]pyrazin-4(5H)-one] | 61 | – | –
C[C@H]1CN(c2ccc(C(F)(F)F)cc2)C(=O)c2c(-c3cn4ccnc4cn3)cnn21 [Example 2, (7S)-3-(imidazo[1,2-a]pyrazin-6-yl)-7-methyl-5-[4-(trifluoromethyl)phenyl]-6,7-dihydropyrazolo[1,5-a]pyrazin-4(5H)-one] | 11 | – | –
C[C@H]1CN(c2ccc(C(F)(F)F)cc2)C(=O)c2c(-c3ccc4nc(N)cn4c3)cnn21 [Example 10, (7S)-3-(2-aminoimidazo[1,2-a]pyridin-6-yl)-7-methyl-5-[4-(trifluoromethyl)phenyl]-6,7-dihydropyrazolo[1,5-a]pyrazin-4(5H)-one] | 302 | – | –
C[C@H]1CN(c2ccc(F)c(Cl)c2)C(=O)c2c(-c3ccc4nccn4c3)cnn21 [Example 3, (7S)-5-(3-chloro-4-fluorophenyl)-3-(imidazo[1,2-a]pyridin-6-yl)-7-methyl-6,7-dihydropyrazolo[1,5-a]pyrazin-4 (5H)-one] | 23 | – | –
C[C@H]1CN(c2ccc(C(F)(F)F)cc2)C(=O)c2c(-c3ccc4nccn4c3)cnn21 [Example 1, (7S)-3-(imidazo[1,2-a]pyridin-6-yl)-7-methyl-5-[4-(trifluoromethyl)phenyl]-6,7-dihydropyrazolo[1,5-a]pyrazin-4(5H)-one] | 18 | – | –
C[C@H]1CN(c2ccc(Cl)s2)C(=O)c2c(-c3ccc4nccn4c3)cnn21 [Example 7, (7S)-5-(5-chlorothiophen-2-yl)-3-(imidazo[1,2-a]pyridin-6-yl)-7-methyl-6,7-dihydropyrazolo[1,5-a]pyrazin-4(5H)-one] | 11 | 2.15 | 4.5

The next lines start with the values.

IC50 (human mGlu2 receptor) [nM] | microsomal CLint (CYP3A4) [µL/min/mg] | CYP3A4 MBI (CYP3A4) | SMILES
7.9 | – | – | C[C@H]1CN(c2ccc(C(F)(F)F)cc2)C(=O)c2c(-c3ccc4ncc(F)n4c3)cnn21 [Example 13, (7S)-3-(3-fluoroimidazo[1,2-a]pyridin-6-yl)-7-methyl-5-[4-(trifluoromethyl)phenyl]-6,7-dihydropyrazolo[1,5-a]pyrazin-4(5H)-one]
– | 0.159 | 2.2 | C[C@H]1CN(c2ccc(C(F)(F)F)cn2)C(=O)c2c(-c3ccc4nccn4c3)cnn21 [Example 12, (7S)-3-(imidazo[1,2-a]pyridin-6-yl)-7-methyl-5-[5-(trifluoromethyl)pyridin-2-yl]-6,7-dihydropyrazolo[1,5-a]pyrazin-4(5H)-one]
78 | – | – | C[C@H]1CN(c2ccc(C(F)(F)F)cc2)C(=O)c2c(-c3ccc4ncc(N)n4c3)cnn21 [Example 11, (7S)-3-(3-aminoimidazo[1,2-a]pyridin-6-yl)-7-methyl-5-[4-(trifluoromethyl)phenyl]-6,7-dihydropyrazolo[1,5-a]pyrazin-4(5H)-one]
13 | – | – | CCCc1cnc2ccc(-c3cnn4c3C(=O)N(c3ccc(C(F)(F)F)cc3)C[C@@H]4C)cn12 [Example 16, (7S)-7-methyl-3-(3-propylimidazo[1,2-a]pyridin-6-yl)-5-[4-(trifluoromethyl)phenyl]-6,7-dihydropyrazolo[1,5-a]pyrazin-4(5H)-one]
6.9 | – | – | Cc1cc(N2C[C@H](C)n3ncc(-c4ccc5ncc(F)n5c4)c3C2=O)ccc1F [Example 18, (7S)-3-(3-fluoroimidazo[1,2-a]pyridin-6-yl)-5-(4-fluoro-3-methylphenyl)-7-methyl-6,7-dihydropyrazolo[1,5-a]pyrazin-4(5H)-one]
17 | 1.94 | 3.2 | Cc1cc(N2C[C@H](C)n3ncc(-c4ccc5nccn5c4)c3C2=O)ccc1F [Example 17, (7S)-5-(4-fluoro-3-methylphenyl)-3-(imidazo[1,2-a]pyridin-6-yl)-7-methyl-6,7-dihydropyrazolo[1,5-a]pyrazin-4(5H)-one]

Source: patent publication US11633395B2, “Substituted pyrazolo[1,5-a]pyrazines as negative allosteric modulators of group II metabotropic glutamate receptor” (Sumitomo Pharma Co., Ltd., priority 2017, dated 2023)
